Patent US10869931B2, “Polyethylene glycol-modified angiogenesis inhibitor HM-1 and application thereof” (NANJING ANJI BIOLOGICAL TECHNOLOGY CO.,LTD, priority 2016, dated 2020)
Where no end group is shown, it is not given here.

Experiments:
[1] = Half-life / pharmacokinetics of mPEG-HM-1 and HM-1; conditions: in vivo
Liver cancer tumor cells = assay: MTT proliferation inhibition, liver cancer cells; type: cell-based, human; design: concentration or dose not given beside the values; conditions: 48 h
Description: (§1) The activity of mPEG-HM-1 to inhibit the growth of various tumor cells was examined by MTT assay. The tumor cells were cultured to a concentration of 90% or more in a 37° C., 5% CO2 incubator and collected by trypsinization. The cells were resuspended in the culture medium and counted under a microscope to adjust the cell concentration to 2×10^4 cells/mL, the cell suspension was inoculated into a 96-well plate at 100 μL/well and incubated overnight at 37° C. in a 5% CO2 incubator. mPEG-HM-1 was diluted with the culture solution to each predetermined concentration. Docetaxel is diluted to the final concentration with the culture medium. After the cells were fully attached, each dilution was added to a 96-well plate (100 μL/well). The mPEG-HM-1 dilution was added as a drug-administered group, and docetaxel was added as a positive control group, and a culture solution without any drug was used as a negative control group. Incubate for 48 h at 37° C. in a 5% CO2 incubator. 5 mg/mL of MTT was added to a 96-well plate at 20 μL per well, and incubation was continued for 4 hours. The medium was aspirated, dissolved in 150 μL of DMSO per well, and gently mixed by shaking for 10 min. The absorbance was measured at a measurement wavelength of 570 nm and a reference wavelength of 630 nm using a microplate reader, and the rate of growth inhibition (proliferation inhibition, PI) was calculated. The formula is as follows: PI (%)=1−administration group/negative group
(§2) The test was repeated 3 times independently, and the results obtained by the test were expressed as mean±SD, and the test results are shown in Table 15 to Table 18.

[2] = test system: Breast cancer tumor cells; assay: MTT proliferation inhibition, breast cancer cells; type: cell-based, human; design: concentration or dose not given beside the values; conditions: 48 h
Description: as §1, §2

[3] = test system: Bladder Cancer tumor cells; assay: MTT proliferation inhibition, bladder cancer cells; type: cell-based, human; design: concentration or dose not given beside the values; conditions: 48 h
Description: as §1, §2

Brain tumor cells = assay: MTT proliferation inhibition, brain tumor cells; type: cell-based, human; design: concentration or dose not given beside the values; conditions: 48 h
Description: as §1, §2

[4] = test system: Ovarian cancer tumor cells; assay: MTT proliferation inhibition, ovarian cancer cells; type: cell-based, human; design: concentration or dose not given beside the values; conditions: 48 h
Description: as §1, §2

[5] = test system: Cervical cancer tumor cells; assay: MTT proliferation inhibition, cervical cancer cells; type: cell-based, human; design: concentration or dose not given beside the values; conditions: 48 h
Description: as §1, §2

[6] = test system: Pancreatic cancer tumor cells; assay: MTT proliferation inhibition, pancreatic cancer cells; type: cell-based, human; design: concentration or dose not given beside the values; conditions: 48 h
Description: as §1, §2

[7] = test system: Esophageal cancer tumor cells; assay: MTT proliferation inhibition, esophageal cancer cells; type: cell-based, human; design: concentration or dose not given beside the values; conditions: 48 h
Description: as §1, §2

[8] = test system: Uterine cancer tumor cells; assay: MTT proliferation inhibition, uterine cancer cells; type: cell-based, human; design: concentration or dose not given beside the values; conditions: 48 h
Description: as §1, §2

Hemangioma tumor cells = assay: MTT proliferation inhibition, hemangioma cells; type: cell-based, human; design: concentration or dose not given beside the values; conditions: 48 h
Description: as §1, §2

[9] = test system: Prostate cancer tumor cells; assay: MTT proliferation inhibition, prostate cancer cells; type: cell-based, human; design: concentration or dose not given beside the values; conditions: 48 h
Description: as §1, §2

[10] = test system: Gastric cancer tumor cells; assay: MTT proliferation inhibition, gastric cancer cells; type: cell-based, human; design: concentration or dose not given beside the values; conditions: 48 h
Description: as §1, §2

sarcoma tumor cells = assay: MTT proliferation inhibition, sarcoma cells; type: cell-based, human; design: concentration or dose not given beside the values; conditions: 48 h
Description: as §1, §2

[11] = test system: Thyroid cancer tumor cells; assay: MTT proliferation inhibition, thyroid cancer cells; type: cell-based, human; design: concentration or dose not given beside the values; conditions: 48 h
Description: as §1, §2

[12] = test system: Head and neck cancer tumor cells; assay: MTT proliferation inhibition, head and neck cancer cells; type: cell-based, human; design: concentration or dose not given beside the values; conditions: 48 h
Description: as §1, §2

Lung cancer tumor cells = assay: MTT proliferation inhibition, lung cancer cells; type: cell-based, human; design: concentration or dose not given beside the values; conditions: 48 h
Description: as §1, §2

[13] = test system: Kidney cancer tumor cells; assay: MTT proliferation inhibition, kidney cancer cells; type: cell-based, human; design: concentration or dose not given beside the values; conditions: 48 h
Description: as §1, §2

[14] = test system: Colorectal cancer tumor cells; assay: MTT proliferation inhibition, colorectal cancer cells; type: cell-based, human; design: concentration or dose not given beside the values; conditions: 48 h
Description: as §1, §2

Melanoma tumor cells = assay: MTT proliferation inhibition, melanoma cells; type: cell-based, human; design: concentration or dose not given beside the values; conditions: 48 h
Description: as §1, §2

Compound: RGADRAGGGGRGD [HM-1, Arg-Gly-Ala-Asp-Arg-Ala-Gly-Gly-Gly-Gly-Arg-Gly-Asp]
- AUC(0-inf) [1]: 32800 ± 8230 ng·h/mL
- MRT inf [1]: 4.02 ± 0.78 min

Compound: CC(=O)O[C@@]12CO[C@@H]1C[C@H](O)[C@@]1(C)C(=O)[C@H](O)C3=C(C)[C@@H](OC(=O)[C@H](O)[C@@H](NC(=O)OC(C)(C)C)c4ccccc4)C[C@@](O)([C@@H](OC(=O)c4ccccc4)[C@H]21)C3(C)C [Docetaxel, reference compound]
- rate of growth inhibition (Liver cancer tumor cells): 66.70 ± 17.25%
- rate of growth inhibition [2]: 65.31 ± 21.44%
- rate of growth inhibition [3]: 46.72 ± 13.65%
- rate of growth inhibition (Brain tumor cells): 59.23 ± 16.21%
- rate of growth inhibition [4]: 85.12 ± 19.39%
- rate of growth inhibition [5]: 80.21 ± 19.54%
- rate of growth inhibition [6]: 71.13 ± 20.13%
- rate of growth inhibition [7]: 60.18 ± 17.02%
- rate of growth inhibition [8]: 80.25 ± 22.18%
- rate of growth inhibition (Hemangioma tumor cells): 56.92 ± 16.76%
- rate of growth inhibition [9]: 45.62 ± 14.03%
- rate of growth inhibition [10]: 77.34 ± 22.18%
- rate of growth inhibition (sarcoma tumor cells): 51.31 ± 10.49%
- rate of growth inhibition [11]: 56.21 ± 14.28%
- rate of growth inhibition [12]: 49.23 ± 10.01%
- rate of growth inhibition (Lung cancer tumor cells): 68.23 ± 18.32%
- rate of growth inhibition [13]: 72.93 ± 18.31%
- rate of growth inhibition [14]: 74.59 ± 20.33%
- rate of growth inhibition (Melanoma tumor cells): 83.49 ± 23.27%
